In PubChem BioAssay AID1963839 (Molecular Pharmacology Branch, DTP, NCI, 2024):

Test system: 817829-284-R-J1-PDC complex spheroid viability
Assay: Anticancer human tumor 817829-284-R-J1-PDC patient-derived colon adenocarcinoma cell line growth inhibition [POLQ]
Settings: for IC50: curve of first compound; for viability, T/C: stronger effect = lower value
Procedure, shortened: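 Patient-derived tumour cells were co-cultured with HUVEC and mesenchymal stem cells as multicellular spheroids at 37 °C. They were treated with POLQ inhibitors (novobiocin, ART-558, RP6685) alone or combined with other agents. Top concentrations were at or near clinical Cmax (otherwise 10 microM; SN-38 at 1 microM), decreasing in half-log steps.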

[1] = second compound 0.0316 µM, first compound 0.0316 µM
[2] = second compound 0.0316 µM, first compound 0.1 µM
[3] = second compound 0.0316 µM, first compound 0.316 µM
[4] = second compound 0.0316 µM, first compound 1 µM
[5] = second compound 0.1 µM, first compound 0.0316 µM
[6] = second compound 0.1 µM, first compound 0.1 µM
[7] = second compound 0.1 µM, first compound 0.316 µM
[8] = second compound 0.1 µM, first compound 1 µM
[9] = second compound 0.316 µM, first compound 0.0316 µM
[10] = second compound 0.316 µM, first compound 0.1 µM
[11] = second compound 0.316 µM, first compound 0.316 µM
[12] = second compound 0.316 µM, first compound 1 µM
[13] = second compound 1 µM, first compound 0.0316 µM
[14] = second compound 1 µM, first compound 0.1 µM
[15] = second compound 1 µM, first compound 0.316 µM
[16] = second compound 1 µM, first compound 1 µM
[17] = second compound 3.16 µM, first compound 0.0316 µM
[18] = second compound 3.16 µM, first compound 0.1 µM
[19] = second compound 3.16 µM, first compound 0.316 µM
[20] = second compound 3.16 µM, first compound 1 µM
[21] = second compound 10 µM, first compound 0.0316 µM
[22] = second compound 10 µM, first compound 0.1 µM
[23] = second compound 10 µM, first compound 0.316 µM
[24] = second compound 10 µM, first compound 1 µM
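Note: spheroids exposed to compounds for 7 days.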
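Throughout, for viability, T/C: 100% = DMSO vehicle-treated spheroids.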

SMILES: CNCc1ccc(-c2[nH]c3cc(F)cc4c3c2CCNC4=O)cc1 + Nc1ccc(C#CCN(C(=O)Cc2ncc(C(F)(F)F)cc2C(F)(F)F)c2ccc(F)cc2)nn1
- IC50 (second compound 0.0316 µM): 6740 nM
- IC50 (second compound 0.1 µM): 7780 nM
- IC50 (second compound 0.316 µM): > 10000 nM
- IC50 (second compound 1 µM): > 10000 nM
- IC50 (second compound 3.16 µM): 7270 nM
- IC50 (second compound 10 µM): 8040 nM
- viability, T/C [1]: 85.2%
- viability, T/C [2]: 83.8%
- viability, T/C [3]: 86.4%
- viability, T/C [4]: 73.8%
- viability, T/C (second compound 0.0316 µM, first compound 3.16 µM): 67.4%
- viability, T/C (second compound 0.0316 µM, first compound 10 µM): 41.2%
- viability, T/C [5]: 81%
- viability, T/C [6]: 97%
- viability, T/C [7]: 83%
- viability, T/C [8]: 73.8%
- viability, T/C (second compound 0.1 µM, first compound 3.16 µM): 65.3%
- viability, T/C (second compound 0.1 µM, first compound 10 µM): 45.8%
- viability, T/C [9]: 80.6%
- viability, T/C [10]: 88.7%
- viability, T/C [11]: 82.8%
- viability, T/C [12]: 60.8%
- viability, T/C (second compound 0.316 µM, first compound 3.16 µM): 65%
- viability, T/C (second compound 0.316 µM, first compound 10 µM): 52.9%
- viability, T/C [13]: 97.7%
- viability, T/C [14]: 86.5%
- viability, T/C [15]: 90.1%
- viability, T/C [16]: 73.3%
- viability, T/C (second compound 1 µM, first compound 3.16 µM): 74.3%
- viability, T/C (second compound 1 µM, first compound 10 µM): 48%
- viability, T/C [17]: 103%
- viability, T/C [18]: 83.6%
- viability, T/C [19]: 83.2%
- viability, T/C [20]: 85.8%
- viability, T/C (second compound 3.16 µM, first compound 3.16 µM): 83.6%
- viability, T/C (second compound 3.16 µM, first compound 10 µM): 37.3%
- viability, T/C [21]: 86.2%
- viability, T/C [22]: 75.7%
- viability, T/C [23]: 76.9%
- viability, T/C [24]: 79.5%
- viability, T/C (second compound 10 µM, first compound 3.16 µM): 75.2%
- viability, T/C (second compound 10 µM, first compound 10 µM): 44.1%

SMILES: COc1cccc(OCCCN)c1-c1cc(Nc2cnc(C#N)cn2)n[nH]1 + Nc1ccc(C#CCN(C(=O)Cc2ncc(C(F)(F)F)cc2C(F)(F)F)c2ccc(F)cc2)nn1
- IC50 (second compound 0.0316 µM): 5.44 nM
- IC50 (second compound 0.1 µM): 5.2 nM
- IC50 (second compound 0.316 µM): 5.7 nM
- IC50 (second compound 1 µM): 5.69 nM
- IC50 (second compound 3.16 µM): 5.41 nM
- IC50 (second compound 10 µM): 5.7 nM
- viability, T/C (second compound 0.0316 µM, first compound 0.00316 µM): 82.4%
- viability, T/C (second compound 0.0316 µM, first compound 0.01 µM): 13.8%
- viability, T/C [1]: 5.45%
- viability, T/C [2]: 4.83%
- viability, T/C [3]: 4.44%
- viability, T/C [4]: 3.65%
- viability, T/C (second compound 0.1 µM, first compound 0.00316 µM): 77.1%
- viability, T/C (second compound 0.1 µM, first compound 0.01 µM): 14.6%
- viability, T/C [5]: 4.6%
- viability, T/C [6]: 5.23%
- viability, T/C [7]: 3.56%
- viability, T/C [8]: 3%
- viability, T/C (second compound 0.316 µM, first compound 0.00316 µM): 87%
- viability, T/C (second compound 0.316 µM, first compound 0.01 µM): 14.7%
- viability, T/C [9]: 4.16%
- viability, T/C [10]: 5.93%
- viability, T/C [11]: 4.07%
- viability, T/C [12]: 3.09%
- viability, T/C (second compound 1 µM, first compound 0.00316 µM): 84.7%
- viability, T/C (second compound 1 µM, first compound 0.01 µM): 16.7%
- viability, T/C [13]: 5.79%
- viability, T/C [14]: 4.2%
- viability, T/C [15]: 4.04%
- viability, T/C [16]: 2.8%
- viability, T/C (second compound 3.16 µM, first compound 0.00316 µM): 84%
- viability, T/C (second compound 3.16 µM, first compound 0.01 µM): 11.2%
- viability, T/C [17]: 5.75%
- viability, T/C [18]: 5.62%
- viability, T/C [19]: 3.65%
- viability, T/C [20]: 3.11%
- viability, T/C (second compound 10 µM, first compound 0.00316 µM): 87.2%
- viability, T/C (second compound 10 µM, first compound 0.01 µM): 14.5%
- viability, T/C [21]: 5.81%
- viability, T/C [22]: 3.93%
- viability, T/C [23]: 4.01%
- viability, T/C [24]: 3.39%
